Measurements published in paper PMC12643509, “High-throughput screens identify genotype-specific therapeutics for channelopathies” (JCI Insight, 2025).
“And” between values parts separate entries of the source, which are not always exact repeats. Identical values can stand only once.

Target: WT Kv11.1 (Homo sapiens, UniProt Q12809)
Assay: Whole-cell patch-clamp electrophysiology, drug in bath solution, WT
Type: cell-based
Parameters: expressed in transfected cells; Activation tail currents / Steady-state currents / Time constants of activation (τ): unit not given here
Conditions: for Figure 5B value per cell vs Time / Figure 4B value per cell vs Voltage (mV) / Figure 4D value per cell vs Voltage (mV) / Figure 5E value per cell vs Voltage (mV) / Figure 5F value per cell vs Voltage (mV): individual replicates; for peak tail currents (I-V relationship) / Steady-state currents / Activation tail currents: WT, individual cells; for peak tail currents (I-V relationship): evacetrapib 15 μmol/L in bath; for Steady-state currents / Activation tail currents: evacetrapib 15 μmol/L; for Activation tail currents: tail at –40 mV
Source text: Peak stea dy-sta te current was
Tail current was fit with a […]

WT Kv11.1, sequence (Q12809 whole entry): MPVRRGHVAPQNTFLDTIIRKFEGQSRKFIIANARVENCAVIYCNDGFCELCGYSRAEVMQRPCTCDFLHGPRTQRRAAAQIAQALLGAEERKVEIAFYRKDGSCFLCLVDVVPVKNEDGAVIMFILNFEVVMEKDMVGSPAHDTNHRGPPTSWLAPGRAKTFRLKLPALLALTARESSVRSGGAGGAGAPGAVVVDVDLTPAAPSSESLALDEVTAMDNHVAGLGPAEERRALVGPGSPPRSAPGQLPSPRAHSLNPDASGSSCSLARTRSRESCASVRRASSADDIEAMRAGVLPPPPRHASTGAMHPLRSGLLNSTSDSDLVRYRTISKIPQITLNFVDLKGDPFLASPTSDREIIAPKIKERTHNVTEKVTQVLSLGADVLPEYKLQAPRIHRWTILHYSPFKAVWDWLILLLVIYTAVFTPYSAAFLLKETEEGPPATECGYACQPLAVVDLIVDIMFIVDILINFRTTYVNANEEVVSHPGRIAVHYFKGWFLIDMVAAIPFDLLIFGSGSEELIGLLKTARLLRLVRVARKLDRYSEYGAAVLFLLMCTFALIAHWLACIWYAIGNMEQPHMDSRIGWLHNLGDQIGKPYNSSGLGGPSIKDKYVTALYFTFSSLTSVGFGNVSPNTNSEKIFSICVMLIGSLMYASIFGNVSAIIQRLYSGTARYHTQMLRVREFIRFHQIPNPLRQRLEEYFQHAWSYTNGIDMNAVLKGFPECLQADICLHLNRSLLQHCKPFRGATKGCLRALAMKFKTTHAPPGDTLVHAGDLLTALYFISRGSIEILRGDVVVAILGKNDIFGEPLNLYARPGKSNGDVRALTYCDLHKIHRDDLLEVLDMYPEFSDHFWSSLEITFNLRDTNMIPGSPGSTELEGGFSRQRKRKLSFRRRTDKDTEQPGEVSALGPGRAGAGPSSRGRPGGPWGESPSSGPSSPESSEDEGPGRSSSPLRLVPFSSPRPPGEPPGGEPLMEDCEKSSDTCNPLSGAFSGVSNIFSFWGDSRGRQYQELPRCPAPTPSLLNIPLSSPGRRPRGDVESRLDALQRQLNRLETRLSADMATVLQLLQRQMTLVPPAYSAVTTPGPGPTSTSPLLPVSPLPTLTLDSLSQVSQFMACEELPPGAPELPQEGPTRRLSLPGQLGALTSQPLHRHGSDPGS

SMILES: Cc1cc(C)c2c(c1)[C@@H](N(Cc1cc(C(F)(F)F)cc(C(F)(F)F)c1)c1nnn(C)n1)CCCN2C[C@H]1CC[C@H](C(=O)O)CC1 [Evacetrapib, evacetrapib]
- Figure 5B value per cell vs Time (Time 480): -0.4681 and -0.2647 and -0.2507 and -0.1972 and -0.3239 and -0.2271
- Figure 5B value per cell vs Time (Time 540): -0.5284 and -0.3222 and -0.285 and -0.2169 and -0.3896 and -0.2816
- Figure 5B value per cell vs Time (Time 600): -0.588 and -0.3629 and -0.3374 and -0.2423 and -0.4551 and -0.3284
- Figure 5B value per cell vs Time (Time 660): -0.6518 and -0.4077 and -0.3785 and -0.3017 and -0.5218 and -0.3806
- Figure 5B value per cell vs Time (Time 720): -0.7017 and -0.4517 and -0.4377 and -0.3271 and -0.5811 and -0.4215
- Figure 5B value per cell vs Time (Time 780): -0.7446 and -0.5087 and -0.4704 and -0.3371 and -0.6312 and -0.4754
- Figure 5B value per cell vs Time (Time 840): -0.7775 and -0.545 and -0.522 and -0.4074 and -0.6797 and -0.5211
- Figure 5B value per cell vs Time (Time 900): -0.7865 and -0.5874 and -0.5479 and -0.435 and -0.735 and -0.566
- Figure 5B value per cell vs Time (Time 960): -0.833 and -0.6254 and -0.582 and -0.4724 and -0.7754 and -0.6113
- Figure 5B value per cell vs Time (Time 1020): -0.8444 and -0.6633 and -0.6057 and -0.489 and -0.8272 and -0.6494
- Figure 5B value per cell vs Time (Time 1080): -0.8739 and -0.6879 and -0.652 and -0.5518 and -0.8519 and -0.6869
- Figure 5B value per cell vs Time (Time 1140): -0.894 and -0.7265 and -0.6824 and -0.5792 and -0.8903 and -0.723
- Figure 5B value per cell vs Time (Time 1200): -0.8957 and -0.756 and -0.7067 and -0.6036 and -0.9115 and -0.75
- Figure 5B value per cell vs Time (Time 1260): -0.9162 and -0.7845 and -0.7409 and -0.6519 and -0.9274 and -0.7716
- Figure 5B value per cell vs Time (Time 1320): -0.9293 and -0.808 and -0.7659 and -0.6564 and -0.944 and -0.7966
- Figure 5B value per cell vs Time (Time 1380): -0.9321 and -0.8297 and -0.7811 and -0.6653 and -0.9508 and -0.8202
- Figure 5B value per cell vs Time (Time 1440): -0.9456 and -0.8515 and -0.7941 and -0.6916
- Figure 4B value per cell vs Voltage (mV) (Voltage 0 mV): 11.8726 and 11.4943 and 10.3496 and 10.9094 and 10.8921
- Figure 4B value per cell vs Voltage (mV) (Voltage 10 mV): 8.653 and 8.735 and 8.112 and 8.594 and 8.227
- Figure 4B value per cell vs Voltage (mV) (Voltage 20 mV): 6.045 and 6.561 and 6.2 and 6.536 and 6.09
- Figure 4B value per cell vs Voltage (mV) (Voltage 30 mV): 4.263 and 4.813 and 4.589 (2×) and 4.855
- Figure 4B value per cell vs Voltage (mV) (Voltage 40 mV): 2.999 and 3.548 and 3.503 and 3.618 and 3.396
- Figure 4B value per cell vs Voltage (mV) (Voltage 50 mV): 2.259 and 2.688 and 2.663 and 2.777 and 2.566
- Figure 4B value per cell vs Voltage (mV) (Voltage 60 mV): 1.878 and 2.068 and 2.124 and 2.21 and 2.021
- Figure 4B value per cell vs Voltage (mV) (Voltage 70 mV): 1.522 and 1.6561 and 1.697 and 1.79 and 1.58
- peak tail currents (I-V relationship) (Voltage (mV) 0): 108.731 and 68.2281 and 79.8578 and 105.108 and 89.4676 and 63.9693 and 63.3317 and 23.2206 and 38.9777 and 18.6844
- Steady-state currents (Voltage (mV) 0): 40.4395 and 14.6593 and 23.6253 and 10.7424 and 12.2745 and 25.059 and 13.3557 and 25.8785 and 25.7792 and 48.7186 and 28.6917
- Activation tail currents (Voltage (mV) 0): 45.6244 and 25.343 and 54.0146 and 31.4245 and 29.2272 and 68.7383 and 34.1486 and 20.8925 and 71.2996 and 102.774 and 57.7045
- peak tail currents (I-V relationship) (Voltage (mV) 10): 93.1489 and 60.1622 and 69.939 and 86.7676 and 75.6735 and 55.3784 and 40.7784 and 17.5354 and 25.5833 and 12.8315
- Steady-state currents (Voltage (mV) 10): 32.8981 and 20.4014 and 36.7833 and 17.1944 and 20.5841 and 27.8135 and 21.9511 and 36.7956 and 27.3543 and 47.5782 and 26.4245
- Activation tail currents (Voltage (mV) 10): 61.4581 and 36.6943 and 61.1695 and 48.7606 and 43.5182 and 102.425 and 47.3892 and 33.802 and 80.7764 and 116.916 and 59.6106
- peak tail currents (I-V relationship) (Voltage (mV) 20): 76.997 and 51.8869 and 61.5888 and 71.295 and 62.4196 and 45.36 and 26.1159 and 13.7511 and 17.275 and 9.104
- Steady-state currents (Voltage (mV) 20): 22.6993 and 18.9152 and 37.889 and 17.2911 and 21.9338 and 23.7154 and 29.6022 and 43.1925 and 20.5026 and 37.4057 and 19.7431
- Activation tail currents (Voltage (mV) 20): 71.9787 and 45.4439 and 63.7225 and 61.2461 and 53.0993 and 122.955 and 54.7189 and 46.6431 and 82.6403 and 123.849 and 59.1491
- peak tail currents (I-V relationship) (Voltage (mV) 30): 61.9853 and 42.564 and 49.6862 and 55.8776 and 49.9256 and 37.5621 and 17.4891 and 11.2899 and 12.2347 and 6.843
- Steady-state currents (Voltage (mV) 30): 13.8134 and 15.2335 and 30.8124 and 15.3878 and 19.0656 and 16.8628 and 32.7435 and 42.003 and 14.0184 and 26.2752 and 15.6099
- Activation tail currents (Voltage (mV) 30): 78.4549 and 49.9729 and 64.1927 and 68.2058 and 57.9705 and 130.879 and 57.8601 and 56.5419 and 81.1964 and 126.769 and 58.6074
- peak tail currents (I-V relationship) (Voltage (mV) 40): 49.0637 and 36.1043 and 40.7824 and 44.6525 and 42.1084 and 30.3986 and 12.7193 and 9.659 and 9.23 and 5.4472
- Steady-state currents (Voltage (mV) 40): 8.152
- Activation tail currents (Voltage (mV) 40): 80.9925 and 51.9387 and 63.2186 and 69.4712 and 59.5512 and 133.68 and 59.6841 and 61.1492 and 78.5713 and 128.32 and 57.9252
- peak tail currents (I-V relationship) (Voltage (mV) -10): 121.614 and 76.2939 and 89.915 and 120.029 and 102.147 and 69.7054 and 87.5927 and 30.4321 and 56.9661 and 25.473
- Steady-state currents (Voltage (mV) -10): 39.4793 and 7.634 and 11.4994 and 5.42 and 5.3991 and 14.8809 and 6.707 and 15.12 and 14.6222 and 35.1249 and 21.6894
- peak tail currents (I-V relationship) (Voltage (mV) -20): 131.419 and 84.709 and 100.756 and 135.254 and 114.81 and 74.7542 and 102.167 and 37.4476 and 77.7339 and 32.9646
- Steady-state currents (Voltage (mV) -20): 32.9524 and 3.6817 and 4.46 and 2.8711 and 2.362 and 6.4831 and 3.43 and 7.428 and 4.804 and 18.1098 and 9.611
- Activation tail currents (Voltage (mV) -20): 15.0143
- peak tail currents (I-V relationship) (Voltage (mV) -30): 132.826 and 89.7021 and 107.215 and 142.287 and 124.198 and 74.8335 and 106.966 and 44.1713 and 97.481 and 39.1658
- Steady-state currents (Voltage (mV) -30): 26.2905 and 2.297 and 2.248 and 2.097 and 1.35 and 2.687 and 2.39 and 4.071 and 1.181 and 8.895 and 2.9695
- Activation tail currents (Voltage (mV) -30): 7.534 and 3.411 and 6.987 and 3.037 and 3.42 and 5.381 and 4.729 and 3.695 and 5.67 and 20.6644 and 10.955
- peak tail currents (I-V relationship) (Voltage (mV) -40): 123.894 and 91.9717 and 106.938 and 138.26 and 129.161 and 68.3308 and 100.665 and 47.0658 and 110.15 and 41.9127
- Steady-state currents (Voltage (mV) -40): 22.4974 and 1.925 and 1.695 and 1.5162 and 1.5185 and 1.713 and 2.12 and 2.908 and -0.105 and 5.52 and 1.124
- Activation tail currents (Voltage (mV) -40): 4.388 and 2.505 and 3.124 and 2.236 and 2.355 and 2.6537 and 2.736 and 2.76 and 1.5226 and 9.99 and 3.792
- peak tail currents (I-V relationship) (Voltage (mV) -50): 102.384 and 84.1154 and 96.6044 and 116.609 and 127.372 and 55.6691 and 86.621 and 46.497 and 109.939 and 41.3172
- Steady-state currents (Voltage (mV) -50): 1.688 and 1.554 and 1.143 and 1.161 and 1.645 and 1.646 and 2.0814 and 1.85 and -0.735 and 4.1055 and 0.8628
- Activation tail currents (Voltage (mV) -50): 3.7007 and 2.582 and 2.251 and 2.025 and 2.032 and 1.953 and 2.466 and 2.6 and 0.4988 and 7.116 and 1.746
- Activation tail currents (Voltage (mV) -60): 4.229 and 3.296 and 2.251 and 1.856 and 2 and 1.917 and 2.331 and 2.577 and 0.3413 and 6.751 and 1.786
- Figure 4B value per cell vs Voltage (mV) (Voltage -10 mV): 14.8044 and 13.7126 and 12.9375 and 13.3319 and 13.3961
- Figure 4B value per cell vs Voltage (mV) (Voltage -20 mV): 17.0235 and 15.2047 and 14.605 and 15.0846 and 15.5938
- Figure 4D value per cell vs Voltage (mV) (Voltage -30 mV): 15.7269 and 18.6316 and 19.1074 and 18.8344 and 16.9058 and 17.0433 and 17.3545
- Figure 4D value per cell vs Voltage (mV) (Voltage -40 mV): 16.5636 and 18.432 and 19.3043 and 18.0397 and 17.6 and 17.7987 and 17.7833 and 17.6688
- Figure 4D value per cell vs Voltage (mV) (Voltage -50 mV): 17.1571 and 17.6888 and 17.131 and 15.567 and 16.0065 and 16.8291 and 17.2705 and 17.4541
- Figure 5E value per cell vs Voltage (mV) (Voltage -50 mV): 902.031 and 870.108 and 1400.85 and 879.311 and 1017 and 1248.9
- Figure 5F value per cell vs Voltage (mV) (Voltage -50 mV): 6388.9 and 7989.38 and 5622.96
- Figure 4D value per cell vs Voltage (mV) (Voltage -60 mV): 15.2329 and 15.5388 and 14.7818 and 13.5682 and 12.8587 and 15.0819 and 14.9385 and 15.3669
- Figure 5E value per cell vs Voltage (mV) (Voltage -60 mV): 1032.08 and 966.812 and 405
- Figure 5F value per cell vs Voltage (mV) (Voltage -60 mV): 3804.89 and 9449.49 and 8793.8 and 3687.69 and 9196.29
- Figure 4D value per cell vs Voltage (mV) (Voltage -70 mV): 13.1624 and 13.1509 and 12.2005 and 10.7217 and 10.4496 and 12.0627 and 12.9211 and 13.7327
- Figure 5E value per cell vs Voltage (mV) (Voltage -70 mV): 981.118 and 839.618 and 778.428
- Figure 5F value per cell vs Voltage (mV) (Voltage -70 mV): 5126.65 and 3642.53 and 2594.13
- Figure 4D value per cell vs Voltage (mV) (Voltage -90 mV): 8.355 and 8.669 and 7.114 and 6.058 and 6.564 and 7.143 and 9.871 and 9.491
- Figure 5E value per cell vs Voltage (mV) (Voltage -90 mV): 372.839 and 359.851 and 360.592 and 394.825 and 418.114 and 332.621 and 441 and 468.124
